# Test results: patent US11802111B2, “Cyclobutyl amide monoacylglycerol lipase modulators” (Janssen Pharmaceutica NV, priority 2020, dated 2023)
# Target: human MGL from HeLa cells (Homo sapiens (Human), UniProt Q99685)
# Assay: MGL in vitro activity assay ([glycerol-1,3-3H]-oleoyl glycerol hydrolysis, activated carbon filtration)
# Type: biochemical
# Conditions: 300 nM [Glycerol-1,3-3H]-oleoyl glycerol, one hour
# Description: The assay used to measure the in vitro activity of MGL is adapted from the assay used for another serine hydrolase (FAAH) described in Wilson et al., 2003 (A high-throughput-compatible assay for determining the activity of fatty acid amide hydrolase. Wilson S J, Lovenberg T W, Barbier A J. Anal Biochem. 2003 Jul. 15; 318(2):270-5). The assay consists of combining endogenously expressed MGL from HeLa cells with test compounds, adding [glycerol-1,3-^3H]-oleyl glycerol, incubating for one hour, and then measuring the amount of cleaved [1,3-^3H]-glycerol that passes through an activated carbon filter. The amount of cleaved, tritiated glycerol passing through the carbon filter is proportional to the activity of the MGL enzyme in a particular well/test condition.
# Standard conditions for this assay combine 300 nM [Glycerol-1,3-^3H]-oleoyl glycerol with human MGL from HeLa cells and test compounds for one hour, after which the reaction is filtered through activated carbon and tritium is measured in the flow through. The test compound concentration in screening mode is 10 μM, while the highest compound concentration in IC50 assays is determined empirically. MGL is the predominant hydrolase in HeLa cells/cell homogenates.
# Sequence of human MGL from HeLa cells (Q99685 whole entry): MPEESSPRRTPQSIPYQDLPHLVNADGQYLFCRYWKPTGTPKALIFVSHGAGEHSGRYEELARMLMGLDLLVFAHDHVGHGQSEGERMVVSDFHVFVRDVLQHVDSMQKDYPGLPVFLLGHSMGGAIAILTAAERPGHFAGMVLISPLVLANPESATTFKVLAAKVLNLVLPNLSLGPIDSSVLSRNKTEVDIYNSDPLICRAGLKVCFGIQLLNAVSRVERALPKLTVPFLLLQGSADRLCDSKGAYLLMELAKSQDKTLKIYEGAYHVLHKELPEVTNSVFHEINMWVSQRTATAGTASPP
row,SMILES,IC50 [nM]
1,"Cc1c(C2CCC3(C2)CN(C(=O)[C@H]2C[C@@](C)(O)C2)C3)cccc1C(F)(F)F (mixture of isomers) [Example 7, (rac)-((1s,3s)-3-Hydroxy-3-methylcyclobutyl)(6-(2-methyl-3-(trifluoromethyl)phenyl)-2-azaspiro[3.4]octan-2-yl)methanone]",10
2,"Cc1cc(C(F)(F)F)ccc1C1CCC2(C1)CN(C(=O)[C@H]1C[C@@](C)(O)C1)C2 (mixture of isomers) [Example 8, (rac)-((1s,3s)-3-Hydroxy-3-methylcyclobutyl)(6-(2-methyl-4-(trifluoromethyl)phenyl)-2-azaspiro[3.4]octan-2-yl)methanone]",5
3,"Cc1cc(OC(F)(F)F)ccc1C1CCC2(C1)CN(C(=O)[C@H]1C[C@@](C)(O)C1)C2 (mixture of isomers) [Example 9, (rac)-((1s,3s)-3-Hydroxy-3-methylcyclobutyl)(6-(2-methyl-4-(trifluoromethoxy)phenyl)-2-azaspiro[3.4]octan-2-yl)methanonemethanone]",3.4
4,"Cc1cc(Cl)ccc1C1CCC2(C1)CN(C(=O)[C@H]1C[C@@](C)(O)C1)C2 (mixture of isomers) [Example 10, (rac)-(6-(4-Chloro-2-methylphenyl)-2-azaspiro[3.4]octan-2-yl)((1s,3s)-3-hydroxy-3-methylcyclobutyl)methanone]",22
5,"Cc1c(Cl)cccc1C1CCC2(C1)CN(C(=O)[C@H]1C[C@@](C)(O)C1)C2 (mixture of isomers) [Example 11, (rac)-(6-(3-Chloro-2-methylphenyl)-2-azaspiro[3.4]octan-2-yl)((1s,3s)-3-hydroxy-3-methylcyclobutyl)methanone]",37
6,"Cc1cc(C2CCC3(C2)CN(C(=O)[C@H]2C[C@@](C)(O)C2)C3)ccc1C(F)F (mixture of isomers) [Example 12, (rac)-(6-(4-(Difluoromethyl)-3-methylphenyl)-2-azaspiro[3.4]octan-2-yl)((1s,3s)-3-hydroxy-3-methylcyclobutyl)methanone]",25
7,"COc1cccc(C2CCC3(C2)CN(C(=O)[C@H]2C[C@@](C)(O)C2)C3)c1C (mixture of isomers) [Example 13, (rac)-((1s,3s)-3-Hydroxy-3-methylcyclobutyl)(6-(3-methoxy-2-methylphenyl)-2-azaspiro[3.4]octan-2-yl)methanone]",159
8,"Cc1ccc(C2CCC3(C2)CN(C(=O)[C@H]2C[C@@](C)(O)C2)C3)c(C)c1 (mixture of isomers) [Example 14, (rac)-(6-(2,4-Dimethylphenyl)-2-azaspiro[3.4]octan-2-yl)((1s,3s)-3-hydroxy-3-methylcyclobutyl)methanone]",26
9,"CCc1cc(C2CCC3(C2)CN(C(=O)[C@H]2C[C@@](C)(O)C2)C3)ccc1Cl (mixture of isomers) [Example 15, (rac)-(6-(4-Chloro-3-ethylphenyl)-2-azaspiro[3.4]octan-2-yl)((1s,3s)-3-hydroxy-3-methylcyclobutyl)methanone]",6
10,"C[C@]1(O)C[C@@H](C(=O)N2CC3(CCC(c4ccc5c(c4)CCC5)C3)C2)C1 (mixture of isomers) [Example 16, (rac)-(6-(2,3-Dihydro-1H-inden-5-yl)-2-azaspiro[3.4]octan-2-yl)((1s,3s)-3-hydroxy-3-methylcyclobutyl)methanone]",10
11,"COc1cc(C2CCC3(C2)CN(C(=O)[C@H]2C[C@@](C)(O)C2)C3)ccc1C (mixture of isomers) [Example 17, (rac)-((1s,3s)-3-Hydroxy-3-methylcyclobutyl)(6-(3-methoxy-4-methylphenyl)-2-azaspiro[3.4]octan-2-yl)methanone]",46
12,"C[C@]1(O)C[C@@H](C(=O)N2CC3(CCC(c4cccc(C5CC5)c4F)C3)C2)C1 (mixture of isomers) [Example 24, (rac)-(6-(3-Cyclopropyl-2-fluorophenyl)-2-azaspiro[3.4]octan-2-yl)((1s,3s)-3-hydroxy-3-methylcyclobutyl)methanone]",11
13,"CC(C)(C)c1cccc(C2CCC3(C2)CN(C(=O)[C@H]2C[C@@](C)(O)C2)C3)n1 (mixture of isomers) [Example 29, (rac)-(6-(6-(tert-Butyl)pyridin-2-yl)-2-azaspiro[3.4]octan-2-yl)((1s,3s)-3-hydroxy-3-methylcyclobutyl)methanone]",7.7
14,"CC(C)c1ccc(C2CCC3(C2)CN(C(=O)[C@H]2C[C@@](C)(O)C2)C3)cc1 (mixture of isomers) [Example 35, (rac)-((1s,3s)-3-Hydroxy-3-methylcyclobutyl)(6-(4-isopropylphenyl)-2-azaspiro[3.4]octan-2-yl)methanone]",15
15,"CC(C)(C)c1cccc(C2CCC3(CCN(C(=O)[C@H]4C[C@@](C)(O)C4)CC3)C2)c1 (mixture of isomers) [Example 38, (rac)-(2-(3-(tert-Butyl)phenyl)-8-azaspiro[4.5]decan-8-yl)((1s,3s)-3-hydroxy-3-methylcyclobutyl)methanone]",20
16,"CC(C)(C)c1ccc(C2CCC3(CCN(C(=O)[C@H]4C[C@@](C)(O)C4)CC3)C2)cc1 (mixture of isomers) [Example 39, (rac)-(2-(4-(tert-Butyl)phenyl)-8-azaspiro[4.5]decan-8-yl)((1s,3s)-3-hydroxy-3-methylcyclobutyl)methanone]",18
17,"C[C@]1(O)C[C@@H](C(=O)N2CC3(CCC(c4cccc(OC(F)(F)F)c4)C3)C2)C1 (mixture of isomers) [Example 40, (rac)-((1s,3s)-3-Hydroxy-3-methylcyclobutyl)(6-(3-(trifluoromethoxy)phenyl)-2-azaspiro[3.4]octan-2-yl)methanone]",23

# Second part, the compound after the results:
row,IC50 [nM],SMILES
1,6.9,"CC(C)(C)c1cccc(C2CCC3(C2)CN(C(=O)[C@H]2C[C@@](C)(O)C2)C3)c1 (mixture of isomers) [Example 43, (rac)-(6-(3-(tert-Butyl)phenyl)-2-azaspiro[3.4]octan-2-yl)((1s,3s)-3-hydroxy-3-methylcyclobutyl)methanone]"
2,13,"CC(C)c1cccc(C2CCC3(C2)CN(C(=O)[C@H]2C[C@@](C)(O)C2)C3)c1 (mixture of isomers) [Example 46, (rac)-((1s,3s)-3-Hydroxy-3-methylcyclobutyl)(6-(3-isopropylphenyl)-2-azaspiro[3.4]octan-2-yl)methanone]"
3,14,"C[C@]1(O)C[C@@H](C(=O)N2CC3(CCC(c4ccc(C5CC5)cc4)C3)C2)C1 (mixture of isomers) [Example 49, (rac)-(6-(4-Cyclopropylphenyl)-2-azaspiro[3.4]octan-2-yl)((1s,3s)-3-hydroxy-3-methylcyclobutyl)methanone]"
4,16,"C[C@]1(O)C[C@@H](C(=O)N2CC3(CCC(c4ccc(OC(F)(F)F)cc4)C3)C2)C1 (mixture of isomers) [Example 52, (rac)-((1s,3s)-3-Hydroxy-3-methylcyclobutyl)(6-(4-(trifluoromethoxy)phenyl)-2-azaspiro[3.4]octan-2-yl)methanone]"
5,22,"C[C@]1(O)C[C@@H](C(=O)N2CC3(CCC(c4ccc(C(F)(F)F)cc4)C3)C2)C1 (mixture of isomers) [Example 55, (rac)-((1s,3s)-3-Hydroxy-3-methylcyclobutyl)(6-(4-(trifluoromethyl)phenyl)-2-azaspiro[3.4]octan-2-yl)methanone]"
6,41,"C[C@]1(O)C[C@@H](C(=O)N2CC3(CCC(c4cccc(C5CC5)c4)C3)C2)C1 (mixture of isomers) [Example 58, (rac)-(6-(3-Cyclopropylphenyl)-2-azaspiro[3.4]octan-2-yl)((1s,3s)-3-hydroxy-3-methylcyclobutyl)methanone]"
7,29,"C[C@]1(O)C[C@@H](C(=O)N2CC3(CCC(c4cccc(C(F)(F)F)c4)C3)C2)C1 (mixture of isomers) [Example 61, (rac)-((1s,3s)-3-Hydroxy-3-methylcyclobutyl)(6-(3-(trifluoromethyl)phenyl)-2-azaspiro[3.4]octan-2-yl)methanone]"
8,14,"C[C@]1(O)C[C@@H](C(=O)N2CC3(CCC(c4cccc(C5CCC5)c4)C3)C2)C1 (mixture of isomers) [Example 64, (rac)-(6-(3-Cyclobutylphenyl)-2-azaspiro[3.4]octan-2-yl)((1s,3s)-3-hydroxy-3-methylcyclobutyl)methanone]"
9,11,"Cc1ccc(C2CCC3(C2)CN(C(=O)[C@H]2C[C@@](C)(O)C2)C3)cc1C(F)(F)F (mixture of isomers) [Example 65, (rac)-((1s,3s)-3-Hydroxy-3-methylcyclobutyl)(6-(4-methyl-3-(trifluoromethyl)phenyl)-2-azaspiro[3.4]octan-2-yl)methanone]"
10,0.5,"Cc1cc(C2CCC3(C2)CN(C(=O)[C@H]2C[C@@](C)(O)C2)C3)ccc1OC(F)(F)F (mixture of isomers) [Example 66, (rac)-((1s,3s)-3-Hydroxy-3-methylcyclobutyl)(6-(3-methyl-4-(trifluoromethoxy)phenyl)-2-azaspiro[3.4]octan-2-yl)methanone]"
11,1.7,"Cc1cc(C2CCC3(C2)CN(C(=O)[C@H]2C[C@@](C)(O)C2)C3)ccc1C(F)(F)F (mixture of isomers) [Example 67, (rac)-((1s,3s)-3-Hydroxy-3-methylcyclobutyl)(6-(3-methyl-4-(trifluoromethyl)phenyl)-2-azaspiro[3.4]octan-2-yl)methanone]"
12,12,"Cc1cc(C2CCC3(C2)CN(C(=O)[C@H]2C[C@@](C)(O)C2)C3)ccc1Cl (mixture of isomers) [Example 68, (rac)-(6-(4-Chloro-3-methylphenyl)-2-azaspiro[3.4]octan-2-yl)((1s,3s)-3-hydroxy-3-methylcyclobutyl)methanone]"
13,15,"Cc1ccc(C2CCC3(C2)CN(C(=O)[C@H]2C[C@@](C)(O)C2)C3)cc1Cl (mixture of isomers) [Example 71, (rac)-(6-(3-Chloro-4-methylphenyl)-2-azaspiro[3.4]octan-2-yl)((1s,3s)-3-hydroxy-3-methylcyclobutyl)methanone]"
